Laboratory results reported in paper PMC4578436, “Synthesis and evaluation of the biostability and cell compatibility of novel conjugates of nucleobase, peptidic epitope, and saccharide” (Beilstein Journal of Organic Chemistry, 2015).
Where a SMILES comes first, the peptide text is derived from it. The star is where a group is joined. Adenin9ylacetyl = Nc1ncnc2c1ncn2CC(=O)*

How the values were obtained:
proteinase K [1] = target: T1, proteinase K (Parengyodontium album, UniProt P06873); conditions: peptide sequence alone; cited from earlier work
T1 construct: purchased Sigma
Text: This article reports the synthesis of a new class of conjugates containing a nucleobase, a peptidic epitope, and a saccharide and the evalution of their gelation, biostability, and cell compatibility. […] All the conjugates themselves (1–8) display excellent solubility in water without forming hydrogels. However, a mixture of 5 and 8 self-assembles to form nanofibers and results in a supramolecular hydrogel. The pr ...

proteinase K [2] = target: T1, proteinase K; assay: biostability: incubation with proteinase K; assay type: in vitro ADME; conditions: 24 h, 37 °C
Protocol: The existence of proteolytic enzymes in organism limits the applications of peptide-based biomaterials in vivo. […] When we changed the peptide sequence to EPTV, only 15% of 3 left.
Figure 3 Compounds remained after incubating with proteinase K (3.2 U/mL) for 24 h at 37 °C. (A) Each conjugate 1–8 is at the concentration of 0.2 mg/mL in HEPES buffer (pH 7.4). (B) Mixture of 1 + 8, 5 + 8, or 7 + 8 is in PBS buffer ([1] = [5] = [8] = 8.3 mM, pH 6.2). TEXT PRINTED IN THE PICTURE: (A) 4: Comp. remained %: Un-detectable | (A) 8: Comp. remained %: Un-detectable | (B) 8: Comp. remained %: Un-detectable (Mixtures: 7+8)
Starting materials and reagents were purchased from GL Biochem (Shanghai) Ltd. and Fisher Scientific without further purification unless otherwise noted. Proteinase K was purchased from Sigma (>800 unit/mL). The HeLa cell line (CCL-2) and the PC12 (CRL-1721.1) cell line were purchased from the American Type Culture Collection. All of the media were purchased from Invitrogen.

T1 sequence (P06873 106-384): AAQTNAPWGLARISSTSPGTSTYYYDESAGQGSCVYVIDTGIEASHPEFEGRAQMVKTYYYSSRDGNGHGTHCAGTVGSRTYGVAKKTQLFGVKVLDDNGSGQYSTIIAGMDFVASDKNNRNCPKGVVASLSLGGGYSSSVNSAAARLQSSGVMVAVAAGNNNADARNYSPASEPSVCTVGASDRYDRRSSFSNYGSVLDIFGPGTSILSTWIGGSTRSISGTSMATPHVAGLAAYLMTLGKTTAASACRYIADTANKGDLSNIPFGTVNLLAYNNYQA

Compound	proteolytic stability of the peptidic epitope itself (proteinase K [1])	8 remained after incubating the mixture 1 + 8 with proteinase K (proteinase K [2]; mixture 1 + 8, each 8.3 mM in PBS buffer pH 6.2, proteinase K 3.2 U/mL)	8 remained after incubating the mixture 5 + 8 (hydrogel) with proteinase K (proteinase K [2]; mixture 5 + 8, each 8.3 mM in PBS buffer pH 6.2, proteinase K 3.2 U/mL)	8 remained after incubating the mixture 7 + 8 with proteinase K (proteinase K [2]; mixture 7 + 8 in PBS buffer pH 6.2, same condition as 5 + 8, proteinase K 3.2 U/mL)
LGFNI	susceptible to proteolysis			
TTPV	proteolytic resistant			
CC[C@H](C)[C@H](NC(=O)[C@H](CC(N)=O)NC(=O)[C@H](Cc1ccccc1)NC(=O)CNC(=O)[C@H](CC(C)C)NC(=O)Cn1cnc2c(N)ncnc21)C(=O)O [compound 8] (Adenin9ylacetyl-LGFNI-OH)		about 3%	about 50%	Un-detectable
